Data taken from patent US20240287138A1, “CYCLIC PEPTIDES FOR INHIBITING TNF RECEPTOR 1 ACTIVITY” (Merck Sharp & Dohme LLC, priority 2023, published 2024).
Numbered stars: 1 amine (or outer) side, 2 acyl side, 3 side chain; on linkers, the order of the positions; unused ones are H or OH. Bridge positions count the residues as written; N and C are the ends. Square brackets hold non-standard residues; d marks the D form. Peptide text beside a SMILES is read from it. Ala(2-carboxypyrimidin-5-yl) = N[C@@H](Cc1cnc(C(=O)O)nc1)C(=O)O; Trp(βS-Me,7-OMe) = COc1cccc2c([C@H](C)[C@H](N)C(=O)O)c[nH]c12; Trp(7-Cl) = N[C@@H](Cc1c[nH]c2c(Cl)cccc12)C(=O)O; Phe(3-COOH) = N[C@@H](Cc1cccc(C(=O)O)c1)C(=O)O; Phe(4-CONH2) = NC(=O)c1ccc(C[C@H](N)C(=O)O)cc1; Phe(4-COOH) = N[C@@H](Cc1ccc(C(=O)O)cc1)C(=O)O; dPro(trans-4-F) = O=C(O)[C@H]1C[C@H](F)CN1; Pip(5R-OH) = O=C(O)[C@@H]1CC[C@@H](O)CN1; Tyr(2-F) = N[C@@H](Cc1ccc(O)cc1F)C(=O)O; X1 = O=C([C@@H]1CC[C@H](N[*:1])C1)[*:2]; Pip(4-aza) = O=C(O)[C@@H]1CNCCN1; 4Pal = N[C@@H](Cc1ccncc1)C(=O)O; NMeE = CN[C@@H](CCC(=O)O)C(=O)O; dHyp = O=C(O)[C@H]1C[C@H](O)CN1; αMeS = C[C@](N)(CO)C(=O)O; Nle = CCCC[C@H](N)C(=O)O; Sar = CNCC(=O)O

Legend:
[1] = target: T1, human soluble TNFR1 (sTNFR1) (Homo sapiens, UniProt P19438); experiment: Human sTNFR1-peptide displacement assay (LanthaScreen Eu TR-FRET binding assay)
T1 construct: made in house; host or cells: Sf21 (baculovirus)
T1 sequence (P19438 with tags, fused parts or gaps): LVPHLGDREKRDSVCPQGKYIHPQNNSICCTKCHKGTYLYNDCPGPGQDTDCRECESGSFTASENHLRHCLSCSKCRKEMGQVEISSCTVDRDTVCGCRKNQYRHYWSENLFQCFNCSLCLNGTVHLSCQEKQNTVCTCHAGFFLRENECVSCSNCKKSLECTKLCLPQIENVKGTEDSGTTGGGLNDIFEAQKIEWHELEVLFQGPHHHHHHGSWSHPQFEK
Description: A. Procedure for Human sTNFR1-Peptide Displacement Assay
The affinity was determined using LanthaScreen Eu-based time-resolved fluorescence resonance energy transfer (TR-FRET)-based binding assay.
A TR-FRET assay measuring the displacement of biotinylated peptide SEQ ID NO. 1 from human soluble TNFR1 (sTNFR1) in a pre-formed complex by a macrocyclic peptide yields the affinity (Kd^app) of the cyclic peptide for sTNFR1. The reagents for the assay include: the C′-terminally 6His-tagged sTNFR1 (residues 1-211) protein purified from a Sf21 baculovirus expression system, the biotin-tagged B0372 peptide described in section “Preparation of Final Compounds”, part E, the LanthaScreen™ anti-His Tag Europium donor (Life Technologies Corporation (San Diego, CA), cat. #PV5597), and a streptavidin-conjugate Alexa Fluor™ 647 acceptor (Invitrogen (Waltham, MA), cat. #S32357). Time-resolved TR-FRET is achieved when sTNFR1 is bound to biotinylated peptide SEQ ID NO. 1 through coupling of the donor and acceptor FRET pair.
100 nM biotinylated peptide SEQ ID NO. […] 100 nM biotinylated peptide SEQ ID NO. 1 was chosen as it reflects the ˜Kd for this complex. After 30 min at ambient temperature, each test peptide (2 mM stock in DMSO) is titrated in a 20 point, ˜3-fold discrete dose-response using an acoustic-dispense liquid handler. Specifically, 80 nL of peptide/DMSO is transferred into a ProxiPlate-384 Plus 384-well assay plate (PerkinElmer, cat. #6008289). To this plate, 8 μL of the previously formed sTNFR 1-biotinylated peptide SEQ ID NO. 1 complex is added and allowed to reach binding equilibrium with the test peptide at ambient temperature for 90 min.
The TR-FRET signal is measured with the following EnVision® settings: excitation laser at 337 nm; emission1=615 nm, emission2=665 nm, LANCE/DELFIA dichroic mirror, delay time=[…]. The signal of each well is determined as the ratio of the emission at 665 nm to that at 615 nm. Percent displacement is determined by normalization to control wells containing DMSO (0%) or a saturating concentration of a displaceable peptide (100%). The %-effect as a function of peptide concentration is fit to a five-parameter logistic fit based on the Morrison equation to account for tight binding kinetics.

[2] = target: T2, TNFα-induced NF-κB signal transduction pathway (TNFR1 signaling) in THP-1 cells (Homo sapiens, UniProt P19438); experiment: THP-1 Lucia NF-κB reporter cell assay, inhibition of TNFα-induced NF-κB signaling; format: cell-based; conditions: THP-1 NF-κB Lucia reporter cells, 10 ng/mL TNFα, 16-18 h, secreted luciferase; read-out: THP-1 IC50
T2 sequence (P19438 30-455): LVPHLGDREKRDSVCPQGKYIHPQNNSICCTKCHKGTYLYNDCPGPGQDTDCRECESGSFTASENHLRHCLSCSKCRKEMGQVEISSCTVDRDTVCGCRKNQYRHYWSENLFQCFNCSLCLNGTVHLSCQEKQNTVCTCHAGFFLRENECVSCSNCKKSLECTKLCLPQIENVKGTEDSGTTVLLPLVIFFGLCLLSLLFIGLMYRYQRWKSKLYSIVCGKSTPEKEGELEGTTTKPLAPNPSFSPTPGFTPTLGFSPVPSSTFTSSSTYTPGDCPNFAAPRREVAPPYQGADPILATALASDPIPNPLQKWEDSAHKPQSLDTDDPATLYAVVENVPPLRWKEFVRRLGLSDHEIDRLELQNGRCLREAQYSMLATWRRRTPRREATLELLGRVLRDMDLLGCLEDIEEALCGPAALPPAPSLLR
Method in brief: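 Read-out: secreted Lucia luciferase luminescence (QUANTI-Luc) from supernatant after 16-18 h, 37 °C, 10 ng/mL rhTNFα. Peptide pretreatment 1 h at 37 °C; 20,000 cells/well, selection antibiotics omitted. IC50 via 4-parameter logistic model against min/max controls.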

Compound | IC50 [1] [nM] | IC50 [2] [nM] | Kd [1] [nM]
CCCC[C@@H]1NC(=O)CSC[C@@H](C(N)=O)NC(=O)[C@H]([C@@H](C)c2c[nH]c3c(OC)cccc23)NC(=O)CN(C)C(=O)[C@H](Cc2cccc(C(=O)O)c2)NC(=O)[C@H](Cc2ccc(C(N)=O)cc2)NC(=O)[C@](C)(CO)NC(=O)[C@H](Cc2c[nH]c3c(Cl)cccc23)NC(=O)[C@H](Cc2ccc(C(N)=O)cc2)NC(=O)[C@H](CC(N)=O)NC(=O)[C@H](CCC(=O)O)N(C)C(=O)[C@H](Cc2c[nH]c3ccccc23)NC(=O)[C@@H]2CNCCN2C(=O)[C@H](Cc2ccncc2)NC1=O [SEQ ID NO. 184] ({CH2CO}-[Nle][4Pal][Pip(4-aza)]W[NMeE]N[Phe(4-CONH2)][Trp(7-Cl)][αMeS][Phe(4-CONH2)][Phe(3-COOH)][Sar][Trp(βS-Me,7-OMe)]C-NH2; thioether N-14) | 0.5 | 1.7 | 
CCCC[C@@H]1NC(=O)[C@@H]2CC[C@@H](C2)NC(=O)[C@H]([C@@H](C)c2c[nH]c3c(OC)cccc23)NC(=O)CN(C)C(=O)[C@H](Cc2cnc(C(=O)O)nc2)NC(=O)[C@H](Cc2ccc(C(N)=O)cc2)NC(=O)[C@](C)(CO)NC(=O)[C@H](Cc2c[nH]c3c(Cl)cccc23)NC(=O)[C@H](Cc2ccc(C(=O)O)cc2)NC(=O)[C@H](CC(N)=O)NC(=O)[C@H]2C[C@H](O)CN2C(=O)[C@H](Cc2c[nH]c3ccccc23)NC(=O)[C@@H]2CC[C@@H](O)CN2C(=O)[C@H](Cc2ccncc2)NC1=O [SEQ ID NO. 191] (cyclo([4Pal][Pip(5R-OH)]W[dHyp]N[Phe(4-COOH)][Trp(7-Cl)][αMeS][Phe(4-CONH2)][Ala(2-carboxypyrimidin-5-yl)][Sar][Trp(βS-Me,7-OMe)][X1][Nle])) |  | 1.6 | 0.18
CCCC[C@@H]1NC(=O)CSC[C@@H](C(N)=O)NC(=O)[C@H]([C@@H](C)c2c[nH]c3c(OC)cccc23)NC(=O)CN(C)C(=O)[C@H](Cc2ccc(O)cc2)NC(=O)[C@H](Cc2ccc(C(=O)O)cc2)NC(=O)[C@](C)(CO)NC(=O)[C@H](Cc2c[nH]c3c(Cl)cccc23)NC(=O)[C@H](Cc2ccncc2)NC(=O)[C@H](CC(N)=O)NC(=O)[C@H]2C[C@H](F)CN2C(=O)[C@H](Cc2c[nH]c3ccccc23)NC(=O)[C@@H]2CNCCN2C(=O)[C@H](Cc2ccncc2)NC1=O [SEQ ID NO. 279] ({CH2CO}-[Nle][4Pal][Pip(4-aza)]W[dPro(trans-4-F)]N[4Pal][Trp(7-Cl)][αMeS][Phe(4-COOH)]Y[Sar][Trp(βS-Me,7-OMe)]C-NH2; thioether N-14) |  | 1.4 | 0.38
CCCC[C@@H]1NC(=O)[C@@H]2CC[C@@H](C2)NC(=O)[C@H]([C@@H](C)c2c[nH]c3c(OC)cccc23)NC(=O)CN(C)C(=O)[C@H](Cc2ccc(O)cc2F)NC(=O)[C@H](Cc2ccc(C(=O)O)cc2)NC(=O)[C@](C)(CO)NC(=O)[C@H](Cc2c[nH]c3c(Cl)cccc23)NC(=O)[C@H](Cc2ccncc2)NC(=O)[C@H](CC(N)=O)NC(=O)[C@H](CCC(=O)O)N(C)C(=O)[C@H](Cc2c[nH]c3ccccc23)NC(=O)[C@@H]2CNCCN2C(=O)[C@H](Cc2ccncc2)NC1=O [SEQ ID NO. 175] (cyclo([4Pal][Trp(7-Cl)][αMeS][Phe(4-COOH)][Tyr(2-F)][Sar][Trp(βS-Me,7-OMe)][X1][Nle][4Pal][Pip(4-aza)]W[NMeE]N)) |  | 0.9 | 0.22
